According to PMC11995216, “End-to-End Backbone Cyclization Enhances Passive Permeability of bRo5 Oligomeric Depsipeptides with Nonlinear Size Dependence” (ACS Medicinal Chemistry Letters, 2025):
Several values for one entry are separate records, joined by “and”; a condition that tells them apart may be missing. Equal values may be shown once. Read-outs that look alike come from different tables or passages of the source. Each block holds one compound with its values, some of them ahead of it. Non-standard residues stand in square brackets, D forms with d. Residues, ends and D or L forms follow the SMILES beside them. *: point of attachment. Ahp(2) = CCCCC[C@H](N)C(=O)O; dNMeA = CN[C@H](C)C(=O)O; Boc = CC(C)(C)OC(=O)*; OBn = c1ccc(CO*)cc1

Assays:
[1] = UV detection
PAMPA [2] = conditions: UV detection
PAMPA [3] = conditions: UV detection, initial concentration 500 uM
[4] = PAMPA, 500 uM
[5] = initial concentration 500 uM, UV detection
[6] = calculated using Supplement Equation 1, UV detection
in vitro = conditions: PAMPA, Papp
[7] = Acceptor Concentration (uM) / [row 1]
[8] = Acceptor Concentration (uM) / [row 2]
[9] = Acceptor Concentration (uM) / [row 3]
[10] = Acceptor Concentration (uM) / [row 4]
[11] = Acceptor Concentration (uM) / [row 5]
[12] = Acceptor Concentration (uM) / [row 6]
[13] = Acceptor Concentration (uM) / [row 7]
[14] = Acceptor Concentration (uM) / [row 8]
[15] = Acceptor Concentration (uM) / [row 9]
[16] = Acceptor Concentration (uM) / [row 10]

% recovery ([1]; Well 1 / %R, Well 1): 94%
% recovery ([1]; Well 2 / %R, Well 2): 87% (2×) and 92% (2×)
% recovery ([1]; Well 3 / %R, Well 3): 99% (2×) and 87% (2×)
% recovery ([1]; Well 4 / %R, Well 4): 93% (2×) and 85% (2×)
% recovery ([1]; Well 5 / %R, Well 5): 87% (2×) and 86% (2×)
Papp (PAMPA [2]; Papp (x 10^-6 cm/s) / [row 1]): 1.61 ×10⁻⁶ cm/s
Papp (PAMPA [2]; Papp (x 10^-6 cm/s) / [row 2]): 2.02 ×10⁻⁶ cm/s
Papp (PAMPA [2]; Papp (x 10^-6 cm/s) / [row 3]): 2.01 ×10⁻⁶ cm/s
Papp (PAMPA [2]; Papp (x 10^-6 cm/s) / [row 4]): 2.03 ×10⁻⁶ cm/s
Papp (PAMPA [2]; Papp (x 10^-6 cm/s) / [row 5]): 2.24 ×10⁻⁶ cm/s
Papp (PAMPA [2]; Papp (x 10^-6 cm/s) / [row 6]): 2.09 ×10⁻⁶ cm/s
Papp (PAMPA [2]; Papp (x 10^-6 cm/s) / [row 7]): 1.63 ×10⁻⁶ cm/s
Papp (PAMPA [2]; Papp (x 10^-6 cm/s) / [row 8]): 1.88 ×10⁻⁶ cm/s
Papp (PAMPA [2]; Papp (x 10^-6 cm/s) / [row 9]): 2.15 ×10⁻⁶ cm/s
Papp (PAMPA [2]; Papp (x 10^-6 cm/s) / [row 10]): 1.75 ×10⁻⁶ cm/s
Papp (PAMPA [2]; Papp (x 10^-6 cm/s) / experiment 1): 1.61 ×10⁻⁶ cm/s
Papp (PAMPA [2]; Papp (x 10^-6 cm/s) / experiment 2): 2.02 ×10⁻⁶ cm/s
Papp (PAMPA [2]; Papp (x 10^-6 cm/s) / experiment 3): 2.01 ×10⁻⁶ cm/s
Papp (PAMPA [2]; Papp (x 10^-6 cm/s) / experiment 4): 2.03 ×10⁻⁶ cm/s
Papp (PAMPA [2]; Papp (x 10^-6 cm/s) / experiment 5): 2.24 ×10⁻⁶ cm/s
Papp (PAMPA [2]; Papp (x 10^-6 cm/s) / experiment 6): 2.09 ×10⁻⁶ cm/s
Papp (PAMPA [2]; Papp (x 10^-6 cm/s) / experiment 7): 1.63 ×10⁻⁶ cm/s
Papp (PAMPA [2]; Papp (x 10^-6 cm/s) / experiment 8): 1.88 ×10⁻⁶ cm/s
Papp (PAMPA [2]; Papp (x 10^-6 cm/s) / experiment 9): 2.15 ×10⁻⁶ cm/s
Papp (PAMPA [2]; Papp (x 10^-6 cm/s) / experiment 10): 1.75 ×10⁻⁶ cm/s
Δ % diffusion [4]: ↑14%
%T ([6]; Well 1 / %T, Well 1): 0.25% (2×) and 0.31% (2×)
%T ([6]; Well 2 / %T, Well 2): 0.3% (2×) and 0.25% (2×)
%T ([6]; Well 3 / %T, Well 3): 0.3% (2×) and 0.28% (2×)
%T ([6]; Well 4 / %T, Well 4): 0.31% (2×) and 0.32% (2×)
%T ([6]; Well 5 / %T, Well 5): 0.33% (2×) and 0.26% (2×)
Papp at 500 uM (in vitro): 1.94 ± 0.22 ×10⁻⁶ cm/s
SMILES: CCCCC[C@H](OC(=O)[C@@H](C)N(C)C(=O)[C@H](CCCCC)OC(=O)[C@@H](C)N(C)C(=O)[C@H](CCCCC)OC(=O)[C@@H](C)N(C)C(=O)[C@H](CCCCC)OC(=O)[C@@H](C)N(C)C(=O)OC(C)(C)C)C(=O)OCc1ccccc1 [Compound L1.4]
Acceptor Concentration (PAMPA [3]; [7]): 52.3 µM
Acceptor Concentration (PAMPA [3]; [8]): 57.9 µM
Acceptor Concentration (PAMPA [3]; [9]): 64.4 µM
Acceptor Concentration (PAMPA [3]; [10]): 61.4 µM
Acceptor Concentration (PAMPA [3]; [11]): 62.2 µM
Acceptor Concentration (PAMPA [3]; [12]): 61.3 µM
Acceptor Concentration (PAMPA [3]; [13]): 51.5 µM
Acceptor Concentration (PAMPA [3]; [14]): 55 µM
Acceptor Concentration (PAMPA [3]; [15]): 59.1 µM
Acceptor Concentration (PAMPA [3]; [16]): 51.7 µM
Acceptor Concentration (PAMPA [3]; Acceptor Concentration (uM) / experiment 1): 52.3 µM
Acceptor Concentration (PAMPA [3]; Acceptor Concentration (uM) / experiment 2): 57.9 µM
Acceptor Concentration (PAMPA [3]; Acceptor Concentration (uM) / experiment 3): 64.4 µM
Acceptor Concentration (PAMPA [3]; Acceptor Concentration (uM) / experiment 4): 61.4 µM
Acceptor Concentration (PAMPA [3]; Acceptor Concentration (uM) / experiment 5): 62.2 µM
Acceptor Concentration (PAMPA [3]; Acceptor Concentration (uM) / experiment 6): 61.3 µM
Acceptor Concentration (PAMPA [3]; Acceptor Concentration (uM) / experiment 7): 51.5 µM
Acceptor Concentration (PAMPA [3]; Acceptor Concentration (uM) / experiment 8): 55 µM
Acceptor Concentration (PAMPA [3]; Acceptor Concentration (uM) / experiment 9): 59.1 µM
Acceptor Concentration (PAMPA [3]; Acceptor Concentration (uM) / experiment 10): 51.7 µM
donor concentration after incubation ([5]; Well 1 / [donor], Well 1): 417 µM and 390 µM
donor concentration after incubation ([5]; Well 1 / [donor], Well 1, standard curve): 417 µM and 390 µM
donor concentration after incubation ([5]; Well 2 / [donor], Well 2): 379 µM and 406 µM
donor concentration after incubation ([5]; Well 2 / [donor], Well 2, standard curve): 379 µM and 406 µM
donor concentration after incubation ([5]; Well 3 / [donor], Well 3): 432 µM and 382 µM
donor concentration after incubation ([5]; Well 3 / [donor], Well 3, standard curve): 432 µM and 382 µM
donor concentration after incubation ([5]; Well 4 / [donor], Well 4): 404 µM and 364 µM
donor concentration after incubation ([5]; Well 4 / [donor], Well 4, standard curve): 404 µM and 364 µM
donor concentration after incubation ([5]; Well 5 / [donor], Well 5): 372 µM and 379 µM
donor concentration after incubation ([5]; Well 5 / [donor], Well 5, standard curve): 372 µM and 379 µM

% recovery ([1]; Well 1 / %R, Well 1): 84% and 83%
% recovery ([1]; Well 2 / %R, Well 2): 89%
% recovery ([1]; Well 3 / %R, Well 3): 90% and 91%
% recovery ([1]; Well 4 / %R, Well 4): 90%
% recovery ([1]; Well 5 / %R, Well 5): 82% and 92%
Papp (PAMPA [2]; Papp (x 10^-6 cm/s) / [row 1]): 2.47 ×10⁻⁶ cm/s
Papp (PAMPA [2]; Papp (x 10^-6 cm/s) / [row 2]): 2.25 ×10⁻⁶ cm/s
Papp (PAMPA [2]; Papp (x 10^-6 cm/s) / [row 3]): 2.11 ×10⁻⁶ cm/s
Papp (PAMPA [2]; Papp (x 10^-6 cm/s) / [row 4]): 2.43 ×10⁻⁶ cm/s
Papp (PAMPA [2]; Papp (x 10^-6 cm/s) / [row 5]): 2.68 ×10⁻⁶ cm/s
Papp (PAMPA [2]; Papp (x 10^-6 cm/s) / [row 6]): 3.13 ×10⁻⁶ cm/s
Papp (PAMPA [2]; Papp (x 10^-6 cm/s) / [row 7]): 2.4 ×10⁻⁶ cm/s
Papp (PAMPA [2]; Papp (x 10^-6 cm/s) / [row 8]): 2.43 ×10⁻⁶ cm/s
Papp (PAMPA [2]; Papp (x 10^-6 cm/s) / [row 9]): 2.64 ×10⁻⁶ cm/s
Papp (PAMPA [2]; Papp (x 10^-6 cm/s) / [row 10]): 2.27 ×10⁻⁶ cm/s
Acceptor Concentration, Ave [4]: 58.3 µM
Δ % diffusion [4]: ↑6%
%T ([6]; Well 1 / %T, Well 1): 0.61% and 0.63%
%T ([6]; Well 2 / %T, Well 2): 0.61% and 0.6%
%T ([6]; Well 3 / %T, Well 3): 0.58% and 0.63%
%T ([6]; Well 4 / %T, Well 4): 0.6% and 0.62%
%T ([6]; Well 5 / %T, Well 5): 0.61% and 0.64%
SMILES: CCCCC[C@H](NC(=O)[C@@H](C)N(C)C(=O)[C@H](CCCCC)NC(=O)[C@@H](C)N(C)C(=O)[C@H](CCCCC)NC(=O)[C@@H](C)N(C)C(=O)[C@H](CCCCC)NC(=O)[C@@H](C)N(C)C(=O)OC(C)(C)C)C(=O)OCc1ccccc1 [Compound L2.5] (Boc-[dNMeA][Ahp(2)][dNMeA][Ahp(2)][dNMeA][Ahp(2)][dNMeA][Ahp(2)]-OBn)
Acceptor Concentration (PAMPA [3]; [7]): 55.5 µM
Acceptor Concentration (PAMPA [3]; [8]): 54.4 µM
Acceptor Concentration (PAMPA [3]; [9]): 52.1 µM
Acceptor Concentration (PAMPA [3]; [10]): 59 µM
Acceptor Concentration (PAMPA [3]; [11]): 58.4 µM
Acceptor Concentration (PAMPA [3]; [12]): 67.8 µM
Acceptor Concentration (PAMPA [3]; [13]): 57.4 µM
Acceptor Concentration (PAMPA [3]; [14]): 59.8 µM
Acceptor Concentration (PAMPA [3]; [15]): 61.8 µM
Acceptor Concentration (PAMPA [3]; [16]): 56.8 µM
donor concentration after incubation ([5]; Well 1 / [donor], Well 1): 362 µM and 345 µM
donor concentration after incubation ([5]; Well 2 / [donor], Well 2): 391 µM and 386 µM
donor concentration after incubation ([5]; Well 3 / [donor], Well 3): 400 µM and 397 µM
donor concentration after incubation ([5]; Well 4 / [donor], Well 4): 391 µM and 376 µM
donor concentration after incubation ([5]; Well 5 / [donor], Well 5): 351 µM and 405 µM
